According to patent US20070172471A1, “Method for identifying an anti- streptococcal agent and its use for treating streptococcal infections” (Hansa Medical AB, priority 2003, published 2007):

Key:
[1] = test system: thrombin-induced coagulation of normal plasma; assay: Clotting assay (thrombin clotting time); assay type: biochemical; conditions: human plasma, peptides 100 μg/ml, 15 min 37° C., FIG. 5A
Experimental: Clotting assay—The thrombin clotting time (TCT) was measured in a coagulometer (Amelung, Lemgo, Germany). Samples of 200 μl human citrate-treated plasma were incubated with 4 μl of peptide H-2395 or H-2940 (5 mg/ml) for 15 min at 37° C. Clotting was initiated by adding 100 μl of the TCT reagent (Sigma Chemicals, St. Louis, Mo.).

[2] = test system: purified PMNs in a mixture of plasma and M1 protein; assay: M1 protein-induced PMN aggregation, scanning electron microscopy; assay type: cell-based, human
Experimental: Cell culture, neutrophil isolation, and stimulation of cells. Human PMNs were isolated from fresh heparinized blood of healthy volunteers using NIM, a single step density gradient medium, according to the instructions supplied by the manufacture. PMNs were counted with a hemocytometer, resuspended in MEM medium at 10^7 cells/ml and maintained on rotation in this medium at room temperature until use. All experiments on isolated PMNs were performed in Na-medium and initiated within 1 h of PMN isolation. Neutrophilic proteinase release was induced by PMN activation through antibody cross-linking of CD11 b/CD18 as described previously (Gautam et al., 2000, J. Exp. Med., 191, 1829-1839).
Scanning electron microscopy—Probes were gently applied to Millipore filters (Waters Corporation, Milford). Samples were then sucked down to the filters by a wet filter paper lying underneath. The filters were fixed in 2% (v/v) glutaraldehyde, 0.1 M sodium cacodylate, 0.1 M sucrose, pH 7.2 for 1 h at 4° C., and washed with 0.15 M cacodylate, pH 7.2. The filters were postfixed with 1% (w/v) osmium tetroxide, 0.15 M sodium cacodylate, pH 7.2, for 1 h at 4° C., washed, and stored in cacodylate buffer. […]

[3] = test system: S. pyogenes AP1 bacteria infected mice; assay type: in vivo, mouse; conditions: s.c. AP1 bacteria with 400 μg peptide, i.v. peptide after 30 min, lungs six hours after infection, scanning electron microscopy
[4] = test system: mice of the C57BL/6 strain
[5] = test system: thrombin-induced coagulation of normal plasma; conditions: Laudano and Doolittle, 1980; cited from earlier work
TNF-stimulated PMNs = conditions: Loike et al., 1991; cited from earlier work
PMNs = conditions: Ruf and Patscheke, 1995; cited from earlier work
[6] = test system: M1 protein-induced release of HBP from PMNs in human blood; conditions: M1 protein 1 μg/ml, 30 min 37° C., FIG. 2 and FIG. 5B
Experimental: HBP release. 100 μl human blood were diluted in PBS to a final volume of 1.0 ml and incubated with various PMNs-activating components for 30 min at 37° C. Cells were centrifuged (300×g for 15 min) and the supernatant was analyzed by sandwich ELISA. In order to quantify the total amount of HBP in blood, cells were lysed with 0.02% (v/v) Triton X-100, and pelleted as described above.

[7] = M1 protein 15 μg/animal with peptide 400 μg/animal i.v., 30 min

Gly-Pro-Arg-Pro (GPRP)
thrombin-induced coagulation / clotting time [1]: completely blocked thrombin-induced coagulation
M1 protein-induced PMN aggregation [2]: inhibited the aggregation
lung damage in infected mice [3]: much less affected
M1 protein induced lung lesions (hemorrhage and tissue destruction), light microscopy [4, 7]: almost completely prevented
M1 protein-caused lung damage, scanning electron microscopy [4, 7]: contained no precipitates
ratio of lung area containing protein aggregates versus total lung area ([4]; M1 protein plus peptide i.v., six lung sections per animal, electron microscopy): 6±2%
clot formation [5]: prevents clot formation
adherence of TNF-stimulated PMNs to fibrinogen-coated surfaces (TNF-stimulated PMNs): block adherence
platelet-induced activation of PMNs (PMNs): inhibited
effect on M1 protein-induced release of HBP [6]: blocked the mobilization of HT3P by M1 protein in a dose dependent manner
